Test results: article PMC12591169 (Advanced Science, 2025)
“Also recorded” adds a separate entry of the source. Non-standard residues stand in square brackets, D forms with d. pT = C[C@@H](OP(=O)(O)O)[C@H](N)C(=O)O

Experiments:
14‐3‐3σ/ERα complex = assay: HDX‐MS of 14‐3‐3σ/ERα complex with and without FC‐A; type: binding
Procedure: (§1) Maximally deuterated samples were analyzed in triplicate.
(§2) Eluted peptides were directly infused into the mass spectrometer. Mobile phases were kept on ice.
(§3) (Thermo Fisher Scientific). […] Peptides with >20 residues were excluded from analysis.

14-3-3σ/ERα = settings: 14-3-3:ERα:FC-A 1:1:10, 14‐3‐3 5 µM, FC‐A 50 µM, 100 mM ammonium acetate (pH 6.8), 0.5% DMSO; 3 replicates
Procedure: (§4) LC‐MS grade dimethyl sulfoxide (DMSO) was purchased from Fisher Scientific. Lypholized ERα581‐595 15mer peptide (Ac‐[…](pT)V‐COOH, Synpeptide Ltd) and lypholized LRRK2_928‐942 15mer peptide (Ac‐NLQRHSN(pS)LGPIFDH‐CONH2, Synpeptide Ltd) were diluted into 100 mM ammonium acetate to make peptide stocks of 1 mM and stored at ‐20 °C prior to use. Fusicoccin A (FC‐A) was provided as a gift from Yusuke Higuchi. It was obtained as a metabolite of wildtype Phomopsis amygdali and genetically modified Phomopsis amygdali Niigata‐2 as reported previously^[ [62] ^] FC‐A stocks were stored in 100% DMSO at […] at ‐80 °C. 14‐3‐3 was buffer exchanged into 100 mM ammonium acetate (pH 6.8) using a 10 kDa molecular weight cut‐off Amicon Ultra centrifugal filter (Merck Millipore) and stored at ‐80 °C prior to use. To form the 14‐3‐3/ERα complex, 14‐3‐3 (5 µM) was incubated with ERα (1:1 ratio) in the presence and absence of FC‐A (50 µM) (1:1:10 ratio) for 10 min on ice or at 10 min, 5 h or 24 h at room temperature to mimic HDX conditions (Figure S16, Supporting Information). To form the 14‐3‐3/LRRK2 complex, 14‐3‐3 (5 µM) was incubated with LRRK2 (1:2 ratio) in the presence and absence of FC‐A (50 µM) (1:2:10 ratio). 14‐3‐3 binding ratios were optimized to enable single and double‐bound complex formation. 14‐3‐3 protein complexes were directly infused into the mass spectrometer. […]

14‐3‐3/LRRK2 complex [1] = assay: Native MS of 14‐3‐3σ/LRRK2 with FC‐A; type: binding; settings: 14‐3‐3 5 µM, LRRK2 1:2 ratio, FC‐A 50 µM (1:2:10); Figure S14e; proposed explanation of HDX protection
Procedure: as §4

14‐3‐3/LRRK2 complex [2] = settings: HDX‐MS, 14‐3‐3σ 100 µM, LRRK2 200 µM, FC‐A 1 mM
Procedure: To form the 14‐3‐3/LRRK2 complex, 14‐3‐3σ in 25 mM HEPES, 200 mM NaCl, and 10 mM MgCl2 pH 8.0 (100 µM) was incubated with LRRK2 (200 µM) for 10 min on ice. To form the stabilized complex, 14‐3‐3σ (100 µM) was incubated with LRRK2 (200 µM) and FC‐A (1 mM) for 10 min on ice. Control incubations with 14‐3‐3σ (100 µM) in isolation were also performed. A final concentration of 10% DMSO was used for all experiments.
Deuterium labelling was carried out by diluting 14‐3‐3, 14‐3‐3/ERα, 14‐3‐3/ERα/FC‐A, 14‐3‐3/LRRK2 and 14‐3‐3/LRRK2/FC‐A tenfold with 100 mM ammonium acetate 99.9% D2O pD 7.2 and incubating for 10 min, 5 h, and 24 h at room temperature. The reaction was quenched by removal of 50 µL protein complex at each time‐point and adding 30 µL 4 M urea, 200 mM potassium phosphate buffer, pH 2.4, followed by flash freezing in liquid nitrogen and stored at ‐80 °C. […] Each time point was analysed in triplicate by LC‐MS with the exception of the 10‐min timepoint for LRRK2, analysed in duplicate. Non‐deuterated control samples were analysed in triplicate by LC‐MS for ERα complexes and duplicate for LRRK2 complexes.
Maximally deuterated samples were prepared by buffer exchanging 14‐3‐3 into 100 mM ammonium acetate 99.9% D2O pD 7.2 at 20 °C using a 10 kDa molecular weight cut‐off Amicon Ultra centrifugal filter (Merck Millipore). […] Maximally deuterated samples were analyzed in triplicate. […]

14‐3‐3/ERα = settings: cited from earlier work
Excerpt: (§5) Overall, we have highlighted the usefulness of applying HDX‐MS to characterize molecular glues. […] This information was captured on minute‐hour HDX‐MS timescales; however, it is important to optimize HDX‐MS timescales when applying this method to study alternate protein systems. Indeed, shorter timescales might be preferential to capture the most valuable information.

[3] = system: 14-3-3•ERα protein complex; settings: ref PDB 4JDD, cited from earlier work
Excerpt: (§6) Top: Insert of the amphipathic binding groove of 14-3-3 showing binding of FC-A (green) to the 14-3-3•ERα complex (pink) (PDB 4JDD). 14-3-3σ residues involved in binding FC-A and ERα are labelled in grey. […] For illustrati ...

14-3-3•LRRK2 complex = settings: Fig. S3; protein partner occupies the FC-A binding site; ref PDB 5MY9; cited from earlier work
Excerpt: as §6

14‐3‐3ζ /E6 oncoprotein = settings: crystallography; cited from earlier work
14‐3‐3σ = assay: HDX‐MS of 14‐3‐3σ with and without ERα or LRRK2 peptide; type: binding; settings: for protection of 14‐3‐3σ from deuterium exchange upon peptide binding: 14‐3‐3σ 100 µM, ERα 100 µM or LRRK2 200 µM, diluted tenfold into 100 mM ammonium acetate 99.9% D2O pD 7.2, room temperature, 10 min, 5 h, 24 h, 10% DMSO, n = 3 (LRRK2 10 min: duplicate); for protection of 14‐3‐3σ from deuterium exchange at H8 upon peptide binding: H8, located distally from the binding groove
Procedure: as §1, §2, §3

14-3-3σ [4] = assay: Native MS of 14‐3‐3σ with ERα; type: binding; settings: 14‐3‐3 5 µM, 1:1 ratio, 100 mM ammonium acetate (pH 6.8), 0.5% DMSO, absence of FC-A; 3 replicates
Procedure: as §4

14‐3‐3 [5] = settings: binary complex, without FC‐A; read-out: Kd for the binary complex 14‐3‐3/ERα; cited from earlier work
Excerpt: as §5

14‐3‐3 [6] = settings: cited from earlier work
14‐3‐3 [7] = settings: FRET; cited from earlier work
14-3-3σ [8] = biological target: T1, 14-3-3σ (UniProt P31947 1-248); assay: HDX-MS; 14-3-3σ (100 µM) incubated with ERα peptide (100 µM) or LRRK2 peptide (200 µM), with or without FC-A (1 mM), 10 min on ice, in 25 mM HEPES, 200 mM NaCl, 10 mM MgCl2 pH 8.0, 10% DMSO; diluted tenfold in 100 mM ammonium acetate 99.9% D2O pD 7.2; labelled 10 min, 5 h and 24 h at room temperature; deuterium uptake read on 14-3-3σ peptides (pepsin/nepenthesin-2); settings: both partners purified
T1 construct: 14-3-3 protein sigma, full length
T1 sequence (looked up): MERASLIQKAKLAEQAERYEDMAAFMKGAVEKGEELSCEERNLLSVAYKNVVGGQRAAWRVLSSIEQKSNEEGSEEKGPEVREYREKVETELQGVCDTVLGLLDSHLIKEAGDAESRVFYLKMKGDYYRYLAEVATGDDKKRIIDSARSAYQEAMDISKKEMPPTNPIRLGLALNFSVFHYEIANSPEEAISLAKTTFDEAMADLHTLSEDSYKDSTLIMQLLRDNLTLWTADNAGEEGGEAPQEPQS

## C=CC(C)(C)OC[C@H]1O[C@H](O[C@@H]2C3=C([C@H](C)COC(C)=O)C[C@H](O)[C@]3(C)/C=C3/[C@@H](COC)CC[C@H]3[C@@H](C)[C@H]2O)[C@H](O)[C@@H](OC(C)=O)[C@@H]1O [FC‐A, Fusicoccin A]
14‐3‐3σ/ERα complex; HDX‐MS, 14‐3‐3σ 100 µM, ERα 100 µM, FC‐A 1 mM, diluted tenfold into D2O buffer pD 7.2, room temperature, 10 min, 5 h, 24 h, 10% DMSO, n = 3
  additional protection from deuterium exchange of 14‐3‐3σ/ERα upon FC‐A addition: additional protection was observed in several peptides; also recorded: increased protection on H3, H7 and H9; also recorded: protection toward the N‐terminus of H3 and H5 between residues 37–45 and 117–122; also recorded: between residues 85–100 on H4 and residues 26–36 on H2; also recorded: additional protection from deuterium labelling
14‐3‐3σ/ERα complex; HDX‐MS, pD 7.2, room temperature
  closure of H9 upon FC‐A addition to 14‐3‐3σ/ERα: Evidence of this H9 closure was not observed
14‐3‐3σ/ERα complex; difference plot over all time points (10 min, 5 h, 24 h)
  peptides with main differences in HDX uptake, 14‐3‐3σ/ERα vs 14‐3‐3σ/ERα/FC‐A: peptides 23–35, 45-51, 71-73, 92-114 and 120-122
14-3-3σ/ERα
  shift of binding equilibrium upon FC-A addition, native MS: the binding equilibrium is shifted to the fully stabilized ternary complex
14‐3‐3/LRRK2 complex [1]
  interaction between FC‐A and the 14‐3‐3/LRRK2 complex: low affinity interaction
14‐3‐3/LRRK2 complex [2]; diluted tenfold into D2O buffer pD 7.2, room temperature, 10% DMSO
  additional protection of 14‐3‐3/LRRK2 in regions of the LRRK2 binding interface upon FC‐A addition: No additional protection was observed in regions involved in the LRRK2 binding interface suggesting no stabilization effect
14‐3‐3/LRRK2 complex [2]; pD 7.2, room temperature
  level of protection of residues 37 to 45 (FC‐A binding region) in 14‐3‐3/LRRK2 upon FC‐A addition: ~8%
14‐3‐3/ERα; FC‐A
  increase of 14‐3‐3/ERα affinity by the molecular glue: > 10 fold
[3]; Fig. S3, PDB 4JDD
  stabilization of 14-3-3•ERα complex by FC-A: binds and stabilizes
[3]; Fig. S3
  14-3-3σ/ERα residues interacting with FC-A: N42, D215 and K122 interact with FC-A
14-3-3•LRRK2 complex
  stabilization of 14-3-3•LRRK2 complex by FC-A: does not stabilize
14‐3‐3ζ /E6 oncoprotein
  conformational change of 14‐3‐3ζ upon addition of FC‐A: closure of H9

## Ac‐KYYITGEAEGFPA(pT)V‐COOH (Ac-KYYITGEAEGFPA[pT]V-OH) [ERα, lypholized ERα581‐595 15mer peptide, phosphorylated mimetic of estrogen receptor α]
14‐3‐3σ
  protection of 14‐3‐3σ from deuterium exchange upon peptide binding: Protection from deuterium labelling occurs; also recorded: peptides located in helices H3, H7 and H9 showed significant levels of protection after 24 h
14‐3‐3σ; pD 7.2, room temperature
  protection of 14‐3‐3σ from deuterium exchange at H8 upon peptide binding: protection was also observed at H8
  dynamics and flexibility of 14‐3‐3 dimer interface (residues 85–100 on H4, 26–36 on H2) upon ERα binding: a reduction in dynamics and protein flexibility
14-3-3σ [4]
  ERα complexes with 14-3-3 observed by native MS: singly and doubly bound ERα is observed in complex
14‐3‐3/ERα; in the presence of FC‐A
  Kd: 100 ± 30 nM
14‐3‐3 [5]
  Kd: 1600 ± 300 nM

## Ac‐NLQRHSN(pS)LGPIFDH‐CONH2 [LRRK2, lypholized LRRK2_928‐942 15mer peptide, phosphorylated mimetic of leucine‐rich repeat kinase 2]
14‐3‐3σ
  protection of 14‐3‐3σ from deuterium exchange upon peptide binding: identical areas of protection were observed upon LRRK2 binding; also recorded: the level of protection decreased relative to ERα
14‐3‐3σ; pD 7.2, room temperature
  protection of 14‐3‐3σ from deuterium exchange at H8 upon peptide binding: protection was also observed at H8
14‐3‐3 [6]
  binding affinity for 14‐3‐3 relative to ERα: lower binding affinity

## tyrosine hydroxylase: protein partner titrated in a previous FRET study of 14‐3‐3 dimerization
14‐3‐3 [7]
  14‐3‐3 dimer stability upon titration: increased dimer stability

B1: LRRK2_(928-942)pS935 15mer peptide of leucine-rich repeat kinase 2 (peptide)
peptide: NLQRHSNSLGPIFDH
HELM: PEPTIDE1{[ac].N.L.Q.R.H.S.N.[O=C([C@H](COP(=O)(O)O)N[*:1])[*:2]].L.G.P.I.F.D.H.[am]}$$$$V2.0
SMILES: CC[C@H](C)[C@H](NC(=O)[C@@H]1CCCN1C(=O)CNC(=O)[C@H](CC(C)C)NC(=O)[C@H](COP(=O)(O)O)NC(=O)[C@H](CC(N)=O)NC(=O)[C@H](CO)NC(=O)[C@H](Cc1c[nH]cn1)NC(=O)[C@H](CCCNC(=N)N)NC(=O)[C@H](CCC(N)=O)NC(=O)[C@H](CC(C)C)NC(=O)[C@H](CC(N)=O)NC(C)=O)C(=O)N[C@@H](Cc1ccccc1)C(=O)N[C@@H](CC(=O)O)C(=O)N[C@@H](Cc1c[nH]cn1)C(N)=O
notes: leucine-rich repeat kinase 2, residues 928-942, phosphorylated at S935; source: synthetic peptide (Synpeptide Ltd)
14-3-3σ [8]
  binding result: binds

B2: ERα_(581-595)pT594 15mer peptide of estrogen receptor α (peptide)
peptide: Ac-KYYITGEAEGFPA[pT]V-OH
notes: estrogen receptor α, residues 581-595, phosphorylated at T594 ('mode 3' C-terminal motif); source: synthetic peptide (Synpeptide Ltd)
14-3-3σ [8]
  binding result: binds
